Where “and” joins values, the source holds several entries; their conditions need not be identical. Equal entries are not always repeated. Toxic doses and inconclusive results are not listed.
Tested on: L1210 leukemia ip in BDF1 mice, survival T/C
Experiment: NCI In Vivo Anticancer Drug Screen. Data for tumor model L1210 Leukemia (intraperitoneal) in B6D2F1 (BDF1) mice
Conditions: endpoint: mean survival time, higher = longer survival
Summary of the method: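 In this screen, tumor-bearing mice given compound are compared to those given vehicle, and their survival values are reported as a treated-to-control quotient.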

[1] = dose: 100.0 mg/kg/injection, schedule: Q01DX001 (ip), vehicle: saline
[2] = dose: 200.0 mg/kg/injection, schedule: Q01DX001 (ip), vehicle: saline
[3] = dose: 400.0 mg/kg/injection, schedule: Q01DX001 (ip), vehicle: saline
[4] = dose: 400.0 mg/kg/injection, schedule: Q01DX009 (ip), vehicle: saline with Tween-80
[5] = dose: 100.0 mg/kg/injection, schedule: Q04DX003 (ip), vehicle: Klucel (hydroxypropylcellulose) (HPC)
[6] = dose: 200.0 mg/kg/injection, schedule: Q04DX003 (ip), vehicle: Klucel (hydroxypropylcellulose) (HPC)

## O=Cc1c2ccccc2cc2ccccc12
dose: 9.5 mg/kg/injection, schedule: Q01DX015 (ip), vehicle: saline
  T/C: 96 % of control
dose: 9.5 mg/kg/injection, schedule: Q## X015 (ip), vehicle: saline
  T/C: 94 % of control
dose: 9.7 mg/kg/injection, schedule: Q01DX015 (ip), vehicle: other
  T/C: 97 % of control
dose: 16.2 mg/kg/injection, schedule: Q01DX015 (ip), vehicle: other
  T/C: 107 % of control
dose: 16.2 mg/kg/injection, schedule: Q## X015 (ip), vehicle: saline
  T/C: 94 % of control
dose: 27.0 mg/kg/injection, schedule: Q01DX015 (ip), vehicle: other
  T/C: 104 % of control
dose: 27.0 mg/kg/injection, schedule: Q## X015 (ip), vehicle: saline
  T/C: 96 % of control
dose: 45.0 mg/kg/injection, schedule: Q01DX015 (ip), vehicle: other
  T/C: 91 % of control
dose: 45.0 mg/kg/injection, schedule: Q01DX015 (ip), vehicle: saline
  T/C: 96 % of control and 109 % of control
dose: 45.0 mg/kg/injection, schedule: Q## X015 (ip), vehicle: saline
  T/C: 94 % of control
dose: 50.0 mg/kg/injection, schedule: Q01DX001 (ip), vehicle: saline
  T/C: 95 % of control and 100 % of control and 103 % of control
[1]
  T/C: 97 % of control and 100 % of control and 103 % of control
[2]
  T/C: 101 % of control
[3]
  T/C: 97 % of control and 101 % of control and 114 % of control
dose: 800.0 mg/kg/injection, schedule: Q01DX001 (ip), vehicle: saline
  T/C: 100 % of control

## O=C(Nc1ccc([N+](=O)[O-])cc1Cl)Oc1ccc(Cl)cc1Cl
dose: 100.0 mg/kg/injection, schedule: Q01DX001 (ip), vehicle: carboxymethylcellulose (CMC)
  T/C: 97 % of control
dose: 100.0 mg/kg/injection, schedule: Q01DX009 (ip), vehicle: carboxymethylcellulose (CMC)
  T/C: 109 % of control and 91 % of control
dose: 100.0 mg/kg/injection, schedule: Q04DX002 (ip), vehicle: carboxymethylcellulose (CMC)
  T/C: 94 % of control and 90 % of control
dose: 100.0 mg/kg/injection, schedule: Q04DX003 (ip), vehicle: carboxymethylcellulose (CMC)
  T/C: 102 % of control
dose: 200.0 mg/kg/injection, schedule: Q01DX001 (ip), vehicle: carboxymethylcellulose (CMC)
  T/C: 97 % of control
dose: 200.0 mg/kg/injection, schedule: Q01DX009 (ip), vehicle: carboxymethylcellulose (CMC)
  T/C: 102 % of control and 91 % of control
dose: 200.0 mg/kg/injection, schedule: Q04DX002 (ip), vehicle: carboxymethylcellulose (CMC)
  T/C: 93 % of control and 110 % of control
dose: 200.0 mg/kg/injection, schedule: Q04DX003 (ip), vehicle: carboxymethylcellulose (CMC)
  T/C: 94 % of control
dose: 400.0 mg/kg/injection, schedule: Q01DX001 (ip), vehicle: carboxymethylcellulose (CMC)
  T/C: 98 % of control
dose: 400.0 mg/kg/injection, schedule: Q01DX009 (ip), vehicle: carboxymethylcellulose (CMC)
  T/C: 98 % of control
dose: 400.0 mg/kg/injection, schedule: Q04DX002 (ip), vehicle: carboxymethylcellulose (CMC)
  T/C: 93 % of control and 105 % of control
dose: 400.0 mg/kg/injection, schedule: Q04DX003 (ip), vehicle: carboxymethylcellulose (CMC)
  T/C: 98 % of control

## c1ccc(NC2CCN(C3(c4ccccc4)CCCCC3)CC2)cc1
dose: 100.0 mg/kg/injection, schedule: Q04DX002 (ip), vehicle: saline
  T/C: 100 % of control

## NC(N)=NCCc1ccc(Cl)cc1
dose: 50.0 mg/kg/injection, schedule: Q01DX001 (ip), vehicle: Klucel (hydroxypropylcellulose) (HPC)
  T/C: 102 % of control

## CCCCCCOc1ccc(CC(N)C(=O)O)cc1N(CCCl)CCCl (stereo not drawn)
dose: 2.5 mg/kg/injection, schedule: Q01DX009 (ip), vehicle: carboxymethylcellulose (CMC)
  T/C: 119 % of control
dose: 4.4 mg/kg/injection, schedule: Q01DX001 (ip), vehicle: carboxymethylcellulose (CMC)
  T/C: 109 % of control
dose: 6.6 mg/kg/injection, schedule: Q01DX001 (ip), vehicle: carboxymethylcellulose (CMC)
  T/C: 115 % of control
dose: 8.5 mg/kg/injection, schedule: Q01DX001 (ip), vehicle: carboxymethylcellulose (CMC)
  T/C: 117 % of control
dose: 10.0 mg/kg/injection, schedule: Q01DX001 (ip), vehicle: carboxymethylcellulose (CMC)
  T/C: 110 % of control
dose: 13.0 mg/kg/injection, schedule: Q01DX001 (ip), vehicle: carboxymethylcellulose (CMC)
  T/C: 117 % of control
dose: 15.0 mg/kg/injection, schedule: Q01DX001 (ip), vehicle: carboxymethylcellulose (CMC)
  T/C: 116 % of control
dose: 15.0 mg/kg/injection, schedule: Q01DX009 (ip), vehicle: carboxymethylcellulose (CMC)
  T/C: 152 % of control
dose: 20.0 mg/kg/injection, schedule: Q01DX001 (ip), vehicle: carboxymethylcellulose (CMC)
  T/C: 122 % of control
dose: 22.5 mg/kg/injection, schedule: Q01DX009 (ip), vehicle: carboxymethylcellulose (CMC)
  T/C: 113 % of control
dose: 30.0 mg/kg/injection, schedule: Q01DX001 (ip), vehicle: carboxymethylcellulose (CMC)
  T/C: 122 % of control

## C/C(=C\CN1C(=O)CN(C)C1=O)CCC1OC1(C)C (stereo not drawn)
[1]
  T/C: 115 % of control
dose: 100.0 mg/kg/injection, schedule: Q04DX003 (ip), vehicle: water
  T/C: 100 % of control
[2]
  T/C: 111 % of control
dose: 200.0 mg/kg/injection, schedule: Q04DX003 (ip), vehicle: water
  T/C: 98 % of control
[3]
  T/C: 114 % of control
dose: 400.0 mg/kg/injection, schedule: Q04DX003 (ip), vehicle: water
  T/C: 104 % of control

## O=C(Nc1cccc(O)c1)Nc1cccc(Cl)c1Cl
dose: 100.0 mg/kg/injection, schedule: Q01DX009 (ip), vehicle: saline with Tween-80
  T/C: 91 % of control
dose: 200.0 mg/kg/injection, schedule: Q01DX009 (ip), vehicle: saline with Tween-80
  T/C: 92 % of control
[4]
  T/C: 94 % of control

## CCCCCCCCCCCCCCCC1=NN(c2ccccc2)C(=O)C1NC(=O)O (stereo not drawn)
[5]
  T/C: 107 % of control
[6]
  T/C: 97 % of control
dose: 400.0 mg/kg/injection, schedule: Q04DX003 (ip), vehicle: Klucel (hydroxypropylcellulose) (HPC)
  T/C: 98 % of control

## CCN(CCP(c1ccccc1)c1ccccc1)CCP(c1ccccc1)c1ccccc1
dose: 6.25 mg/kg/injection, schedule: Q01DX009 (ip), vehicle: Klucel (hydroxypropylcellulose) (HPC)
  T/C: 120 % of control
dose: 19.0 mg/kg/injection, schedule: Q01DX001 (ip), vehicle: other
  T/C: 120 % of control
dose: 25.0 mg/kg/injection, schedule: Q01DX009 (ip), vehicle: Klucel (hydroxypropylcellulose) (HPC)
  T/C: 122 % of control
dose: 25.0 mg/kg/injection, schedule: Q04DX003 (ip), vehicle: Klucel (hydroxypropylcellulose) (HPC)
  T/C: 106 % of control
dose: 38.0 mg/kg/injection, schedule: Q01DX001 (ip), vehicle: other
  T/C: 112 % of control
dose: 50.0 mg/kg/injection, schedule: Q01DX009 (ip), vehicle: Klucel (hydroxypropylcellulose) (HPC)
  T/C: 100 % of control and 117 % of control
dose: 50.0 mg/kg/injection, schedule: Q04DX003 (ip), vehicle: Klucel (hydroxypropylcellulose) (HPC)
  T/C: 116 % of control
dose: 100.0 mg/kg/injection, schedule: Q01DX009 (ip), vehicle: Klucel (hydroxypropylcellulose) (HPC)
  T/C: 111 % of control
[5]
  T/C: 122 % of control

## O=C(COc1ccc(Br)cc1Br)OCCCl
[1]
  T/C: 100 % of control
[2]
  T/C: 117 % of control
[3]
  T/C: 103 % of control

## CC(C)=CCCC(=O)Oc1ccccc1C(=O)O
dose: 100.0 mg/kg/injection, schedule: Q04DX003 (ip), vehicle: saline
  T/C: 99 % of control
dose: 200.0 mg/kg/injection, schedule: Q04DX003 (ip), vehicle: saline
  T/C: 91 % of control
dose: 400.0 mg/kg/injection, schedule: Q04DX003 (ip), vehicle: saline
  T/C: 93 % of control

## CCOc1ccc(NC(=O)CCCCCCCCC(=O)Nc2ccc(OCC)cc2)cc1
dose: 50.0 mg/kg/injection, schedule: Q01DX009 (ip), vehicle: saline with Tween-80
  T/C: 98 % of control
dose: 100.0 mg/kg/injection, schedule: Q01DX001 (ip), vehicle: saline with Tween-80
  T/C: 96 % of control
dose: 100.0 mg/kg/injection, schedule: Q04DX002 (ip), vehicle: saline with Tween-80
  T/C: 95 % of control and 110 % of control
dose: 100.0 mg/kg/injection, schedule: Q04DX003 (ip), vehicle: saline with Tween-80
  T/C: 88 % of control
dose: 200.0 mg/kg/injection, schedule: Q01DX001 (ip), vehicle: saline with Tween-80
  T/C: 91 % of control
dose: 200.0 mg/kg/injection, schedule: Q04DX002 (ip), vehicle: saline with Tween-80
  T/C: 100 % of control and 89 % of control
dose: 200.0 mg/kg/injection, schedule: Q04DX003 (ip), vehicle: saline with Tween-80
  T/C: 96 % of control
dose: 400.0 mg/kg/injection, schedule: Q01DX001 (ip), vehicle: saline with Tween-80
  T/C: 88 % of control
[4]
  T/C: 100 % of control and 108 % of control
dose: 400.0 mg/kg/injection, schedule: Q04DX002 (ip), vehicle: saline with Tween-80
  T/C: 94 % of control and 97 % of control
dose: 400.0 mg/kg/injection, schedule: Q04DX003 (ip), vehicle: saline with Tween-80
  T/C: 91 % of control

## O=C1C=CC2=Nc3ccccc3CCC2=C1
dose: 75.0 mg/kg/injection, schedule: Q01DX001 (ip), vehicle: steriod suspending solution
  T/C: 93 % of control
dose: 150.0 mg/kg/injection, schedule: Q01DX001 (ip), vehicle: steriod suspending solution
  T/C: 93 % of control
dose: 300.0 mg/kg/injection, schedule: Q01DX001 (ip), vehicle: steriod suspending solution
  T/C: 92 % of control

## Clc1ccc2nc(Cl)c(Cl)nc2c1
[5]
  T/C: 91 % of control
[6]
  T/C: 96 % of control

From PubChem BioAssay AID248 (DTP/NCI, 2004)
